Each block holds one compound with its values, some of them ahead of it.
Legend:
[1] = system: MDR cells; conditions: in vitro and in vivo; cited from earlier work
[2] = system: AR 1.0 cells; assay: Drug accumulation assay: daunorubicin accumulation in AR 1.0 cells; format: cell-based; conditions: Mus musculus, 100% = accumulation with verapamil 100 μM, 1 hr, 37° C.
Summary of the method: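 Daunorubicin accumulation was measured in cells plated 48 h beforehand. These were AR 1.0 cells, an MDR-resistant derivative of mouse EMT6 mammary carcinoma, cultured at 37 °C in 5% CO2 in RPMI 1640 plus 10% foetal calf serum and 2 mM glutamine.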

[3] = system: AR 1.0 cells; assay: Potentiation of doxorubicin toxicity: proliferation assay (sulphorhodamine B); format: cell-based, mouse; conditions: Mus musculus, 96 h; compound alone; four day proliferation; read-out: Compound Toxicity (IC50)
Description: (a) Selected compounds of formula (I) were examined for their ability to potentiate the toxicity of doxorubicin in AR 1.0 cells.

[4] = system: AR 1.0 cells; assay: Potentiation index with doxorubicin titration; format: cell-based, mouse; conditions: for Potentiation Index at RMA concentration 50 nM: Table C1, RMA 50 nM; for Potentiation Index at RMA concentration 20 nM: Table C1, RMA 20 nM
Summary of the method: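 Doxorubicin IC50 in AR 1.0 cells (MDR subline of EMT6 mouse mammary carcinoma) determined by sulphorhodamine B after 4-day culture across 0.263 nM-17.24 μM, with and without a fixed dose of test compound; their ratio gives the PI.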

[5] = system: AR 1.0 cells; assay: Potentiation of toxicity of various cytotoxic agents, AR 1.0 cell line; format: cell-based, mouse; conditions: for Potentiation Index at RMA concentration 10 nM: RMA 10 nM; for Potentiation Index at RMA concentration 30 nM: RMA 30 nM; for Potentiation Index at RMA concentration 50 nM: RMA 50 nM
Procedure: The EMT6 mouse mammary carcinoma cell line and the MDR resistant subline AR 1.0 were cultured in RPMI 1640 medium containing 10% foetal calf serum and 2 mM glutamine at 37° C. in 5% CO2. Cells were passaged between 1 in 200 and 1 in 2000 in the case of the parental cell line and between 1 in 20 and 1 in 200 in the case of the MDR resistant subline, after trypsinisation (0.25% trypsin, 0.2 gl^-1, EDTA).
(§1) (b) Cells were cultured for four days with a titration of doxorubicin (0.263 nM-17.24 μM) in the presence of a fixed concentration of each compound. Proliferation was quantified as described by Skehen et al, loc cit. The IC50 (concentration required to reduce proliferation to 50% of the untreated controls) for doxorubicin alone and with each compound were derived and used to calculate the potentiation index (PI): [formula]
(§2) The potentiation indices of a selection of compounds using a variety of cell lines and a variety of cytotoxics other than doxorubicin were measured following the protocol described above for doxorubicin, and the results are shown in Table D.

[6] = system: 2780AD cells; assay: Potentiation of toxicity of various cytotoxic agents, 2780AD cell line; format: cell-based; conditions: Taxol; for Potentiation Index at RMA concentration 10 nM: RMA 10 nM; for Potentiation Index at RMA concentration 30 nM: RMA 30 nM; for Potentiation Index at RMA concentration 50 nM: RMA 50 nM
Procedure: as §1, §2

[7] = system: H69/LX4 cells; assay: Potentiation of toxicity of various cytotoxic agents, H69/LX4 cell line; format: cell-based; conditions: for Potentiation Index at RMA concentration 10 nM: RMA 10 nM; for Potentiation Index at RMA concentration 30 nM: RMA 30 nM; for Potentiation Index at RMA concentration 50 nM: RMA 50 nM
Procedure: as §1, §2

[8] = system: mdr la P-gp gene; conditions: cited from earlier work

IC50 [2]: 0.132 µM
Compound: COc1cc2c(cc1OC)CN(CCc1ccc(NC(=O)c3cc(N(C)C)ccc3NC(=O)c3cnc4ccccc4n3)cc1)CC2 [compound 9596, Quinoxaline-2-carboxylic acid (2-{4-[2-(6,7-dimethoxy-3,4-dihydro-1H-isoquinolin-2-yl)-ethyl]-phenylcarbamoyl}-4-dimethylamino-phenyl)-amide]
Potentiation Index at RMA concentration 10 nM ([4]; Table C1, RMA 10 nM): 2.68 | Potentiation Index at RMA concentration 30 nM ([4]; Table C1, RMA 30 nM): 44 | Potentiation Index at RMA concentration 50 nM [4]: 131 | Potentiation Index at RMA concentration 100 nM ([4]; Table C1, RMA 100 nM): 354 | Potentiation Index at RMA concentration 10 nM [6]: 3.5 | Potentiation Index at RMA concentration 30 nM [6]: 160 | Potentiation Index at RMA concentration 50 nM [6]: 743 | Potentiation Index at RMA concentration 10 nM ([7]; Vincristine): 1 | Potentiation Index at RMA concentration 30 nM ([7]; Vincristine): 2 | Potentiation Index at RMA concentration 50 nM ([7]; Vincristine): 158

IC50 [2]: 0.087 µM
Compound: COc1cc2c(cc1OC)CN(CCc1ccc(NC(=O)c3sccc3NC(=O)c3cnc4ccccc4n3)cc1)CC2 [compound 9597, Quinoxaline-2-carboxylic acid (2-{4-[2-(6,7-dimethoxy-3,4-dihydro-1H-isoquinolin-2-yl)-ethyl]-phenylcarbamoyl}-thiophen-3-yl)-amide]
Potentiation Index at RMA concentration 10 nM ([4]; Table C1, RMA 10 nM): 80 | Potentiation Index at RMA concentration 30 nM ([4]; Table C1, RMA 30 nM): 382 | Potentiation Index at RMA concentration 50 nM [4]: 551 | Potentiation Index at RMA concentration 100 nM ([4]; Table C1, RMA 100 nM): 878 | Potentiation Index at RMA concentration 10 nM [6]: 110 | Potentiation Index at RMA concentration 30 nM [6]: 1427 | Potentiation Index at RMA concentration 50 nM [6]: 2070 | Potentiation Index at RMA concentration 10 nM ([7]; Vincristine): 1 | Potentiation Index at RMA concentration 30 nM ([7]; Vincristine): 41 | Potentiation Index at RMA concentration 50 nM ([7]; Vincristine): 44

IC50 [2]: 0.087 µM
Compound: COc1ccc(CN(C)CCc2ccc(NC(=O)c3ccccc3NC(=O)c3cnc4ccccc4n3)cc2)cc1OC [compound 9612, Quinoxaline-2-carboxylic acid [2-(4-{2-[(3,4-dimethoxy-benzyl)-methyl-amino]-ethyl}-phenylcarbamoyl)-phenyl]-amide]
Potentiation Index at RMA concentration 10 nM ([4]; Table C1, RMA 10 nM): 11 | Potentiation Index at RMA concentration 30 nM ([4]; Table C1, RMA 30 nM): 95 | Potentiation Index at RMA concentration 50 nM [4]: 149 | Potentiation Index at RMA concentration 100 nM ([4]; Table C1, RMA 100 nM): 171 | Potentiation Index at RMA concentration 10 nM ([7]; Taxol): 51 | Potentiation Index at RMA concentration 30 nM ([7]; Taxol): 894 | Potentiation Index at RMA concentration 50 nM ([7]; Taxol): 1329

IC50 [2]: 0.278 µM
Compound: COc1ccc(CN2CCc3ccc(NC(=O)c4ccccc4NC(=O)c4cnc5ccccc5n4)cc3C2)cc1OC [compound 9614, Quinoxaline-2-carboxylic acid {2-[2-(3,4-dimethoxy-benzyl)-1,2,3,4-tetrahydro-isoquinolin-7-ylcarbamoyl]-phenyl}-amide]
Potentiation Index at RMA concentration 10 nM ([4]; Table C1, RMA 10 nM): 2 | Potentiation Index at RMA concentration 30 nM ([4]; Table C1, RMA 30 nM): 9 | Potentiation Index at RMA concentration 50 nM [4]: 32 | Potentiation Index at RMA concentration 100 nM ([4]; Table C1, RMA 100 nM): 52 | Potentiation Index at RMA concentration 30 nM ([7]; Taxol): 1.1 | Potentiation Index at RMA concentration 50 nM ([7]; Taxol): 11

More lines, now with the values behind:

Compound: COc1ccc(CCN(C)CCCC(C#N)(c2ccc(OC)c(OC)c2)C(C)C)cc1OC (stereo not shown) [Verapamil]
sensitisation of MDR cells to Vinca alkaloids [1]: shown to sensitise MDR cells to Vinca alkaloids in vitro and in vivo

Compound: COc1cc2c(cc1OC)CN(CCc1ccc(NC(=O)c3cc(OC)c(OC)cc3NC(=O)c3cnc4ccccc4c3)cc1)CC2 [compound 9576, Quinoline-3-carboxylic acid (2-{4-[2-(6,7-dimethoxy-3,4-dihydro-1H-isoquinolin-2-yl)-ethyl]-phenylcarbamoyl}-4,5-dimethoxy-phenyl)-amide]
IC50 [2]: 0.064 µM | IC50 [3]: 0.93 µM | Potentiation Index at RMA concentration 10 nM ([4]; Table C2, RMA 10 nM): 78 | Potentiation Index at RMA concentration 30 nM ([4]; Table C2, RMA 30 nM): 225 | Potentiation Index at RMA concentration 100 nM ([4]; Table C2, RMA 100 nM): 280 | Potentiation Index at RMA concentration 10 nM ([5]; Etoposide): 26 | Potentiation Index at RMA concentration 30 nM ([5]; Etoposide): 45 | Potentiation Index at RMA concentration 50 nM ([5]; Etoposide): 51

Compound: COc1cc2c(cc1OC)CN(CCc1ccc(NC(=O)c3cc(Cl)ccc3NC(=O)c3cnc4ccccc4c3)cc1)CC2 [compound 9593, Quinoline-3-carboxylic acid (2-{4-[2-(6,7-dimethoxy-3,4-dihydro-1H-isoquinolin-2-yl)-ethyl]-phenylcarbamoyl}-4-chloro-phenyl)-amide]
IC50 [2]: 0.014 µM | IC50 [3]: 7 µM | Potentiation Index at RMA concentration 10 nM ([4]; Table C2, RMA 10 nM): 6 | Potentiation Index at RMA concentration 30 nM ([4]; Table C2, RMA 30 nM): 57

Compound: COc1cc2c(cc1OC)CN(CCc1ccc(NC(=O)c3sccc3NC(=O)c3cnc4ccccc4c3)cc1)CC2 [compound 9594, Quinoline-3-carboxylic acid (2-{4-[2-(6,7-dimethoxy-3,4-dihydro-1H-isoquinolin-2-yl)-ethyl]-phenylcarbamoyl}-thiophen-3-yl)-amide]
IC50 [2]: 0.087 µM | Potentiation Index at RMA concentration 10 nM ([4]; Table C1, RMA 10 nM): 11 | Potentiation Index at RMA concentration 30 nM ([4]; Table C1, RMA 30 nM): 159 | Potentiation Index at RMA concentration 50 nM [4]: 307 | Potentiation Index at RMA concentration 100 nM ([4]; Table C1, RMA 100 nM): 601 | Potentiation Index at RMA concentration 10 nM [6]: 18 | Potentiation Index at RMA concentration 30 nM [6]: 425 | Potentiation Index at RMA concentration 50 nM [6]: 1126 | Potentiation Index at RMA concentration 10 nM ([7]; Vincristine): 2 | Potentiation Index at RMA concentration 30 nM ([7]; Vincristine): 79 | Potentiation Index at RMA concentration 50 nM ([7]; Vincristine): 356 | Potentiation Index at RMA concentration 10 nM ([5]; Taxol): 50 | Potentiation Index at RMA concentration 30 nM ([5]; Taxol): 308 | Potentiation Index at RMA concentration 50 nM ([5]; Taxol): 407

Compound: COc1cc2c(cc1OC)CN(CCc1ccc(NC(=O)c3c(C)csc3NC(=O)c3cnc4ccccc4n3)cc1)CC2 [compound 9608, Quinoxaline-2-carboxylic acid (3-{4-[2-(6,7-dimethoxy-3,4-dihydro-1H-isoquinolin-2-yl)-ethyl]-phenylcarbamoyl}-4-methyl-thiophen-2-yl)-amide]
IC50 [2]: 0.224 µM | Potentiation Index at RMA concentration 10 nM ([4]; Table C1, RMA 10 nM): 6.7 | Potentiation Index at RMA concentration 20 nM [4]: 31 | Potentiation Index at RMA concentration 30 nM ([4]; Table C1, RMA 30 nM): 60 | Potentiation Index at RMA concentration 50 nM [4]: 118 | Potentiation Index at RMA concentration 100 nM ([4]; Table C1, RMA 100 nM): 178 | Potentiation Index at RMA concentration 10 nM ([7]; Taxol): 1.6 | Potentiation Index at RMA concentration 30 nM ([7]; Taxol): 17 | Potentiation Index at RMA concentration 50 nM ([7]; Taxol): 130

Compound: COc1cc2c(cc1OC)CN(CCc1ccc(NC(=O)c3c(C)csc3NC(=O)c3cnc4ccccc4c3)cc1)CC2 [compound 9609, Quinoline-3-carboxylic acid (3-{4-[2-(6,7-dimethoxy-3,4-dihydro-1H-isoquinolin-2-yl)-ethyl]-phenylcarbamoyl}-4-methyl-thiophen-2-yl)-amide]
IC50 [2]: 0.431 µM | Potentiation Index at RMA concentration 10 nM ([4]; Table C1, RMA 10 nM): 1.4 | Potentiation Index at RMA concentration 20 nM [4]: 3.4 | Potentiation Index at RMA concentration 30 nM ([4]; Table C1, RMA 30 nM): 7.4 | Potentiation Index at RMA concentration 50 nM [4]: 19 | Potentiation Index at RMA concentration 100 nM ([4]; Table C1, RMA 100 nM): 68 | Potentiation Index at RMA concentration 10 nM ([7]; Taxol): 1 | Potentiation Index at RMA concentration 30 nM ([7]; Taxol): 3 | Potentiation Index at RMA concentration 50 nM ([7]; Taxol): 9

Compound: COc1ccc(CN(C)CCc2ccc(NC(=O)c3ccccc3NC(=O)c3cnc4ccccc4c3)cc2)cc1OC [compound 9613, Quinoline-3-carboxylic acid [2-(4-{2-[(3,4-dimethoxy-benzyl)-methyl-amino]-ethyl}-phenylcarbamoyl)-phenyl]-amide]
IC50 [2]: 0.098 µM | Potentiation Index at RMA concentration 10 nM ([4]; Table C1, RMA 10 nM): 3 | Potentiation Index at RMA concentration 30 nM ([4]; Table C1, RMA 30 nM): 35 | Potentiation Index at RMA concentration 50 nM [4]: 97 | Potentiation Index at RMA concentration 100 nM ([4]; Table C1, RMA 100 nM): 168 | Potentiation Index at RMA concentration 10 nM ([7]; Taxol): 2.2 | Potentiation Index at RMA concentration 30 nM ([7]; Taxol): 236 | Potentiation Index at RMA concentration 50 nM ([7]; Taxol): 877

Compound: ivermectin
increased sensitivity of mice deficient in mdr la P-gp gene [8]: up to 100 fold
